Test results as given in ChEMBL document CHEMBL1149522, “Synthesis of 3H-spiro[benzofuran-2,1'-cyclohexane] derivatives from naturally occurring filifolinol and their classical complement pathway inhibitory activity” (Bioorg Med Chem Lett, 2006).
Where “and” joins values, the source holds several entries; their conditions need not be identical. Equal values may be shown once.

These molecules were tested on RBCs (assay: Inhibition of complement-induced hemolysis in sensitized sheep erythrocytes at 253 ug/ml). Conditions: Ovis aries, Erythrocyte.
Type: functional

| SMILES | inhibition at 253 µg/mL [%] |
| --- | --- |
| CC(=O)c1cc2c(cc1O)C[C@@]1(O2)[C@@H](C)CC[C@@H](O)C1(C)C | 17 |

These molecules were tested on RBCs (assay: Inhibition of complement-induced hemolysis in sensitized sheep erythrocytes). Conditions: Ovis aries, Erythrocyte.
Type: functional, cell-based

| SMILES | IC50 |
| --- | --- |
| C[C@H]1CC[C@@H](O)C(C)(C)[C@@]12Cc1cc(C(=O)[O-])ccc1O2.[Na+] | 2 mM and 580 µg/mL |
| C[C@]1(O)CC[C@@H]([C@]2(C)Cc3c(O)ccc(C(=O)[O-])c3O2)C[C@H]1O.[Na+] | 1.6 mM and 515 µg/mL |
| COc1ccc(C(=O)[O-])c2c1CC1(CCCCC1)O2.[Na+] | 1.3 mM and 341 µg/mL |
| CC(=O)c1c(O)ccc2c1C[C@@]1(O2)[C@@H](C)CC[C@@H](O)C1(C)C | 1.07 mM and 320 µg/mL |
| C[C@H]1CC[C@@H](O)C(C)(C)[C@@]12Cc1cc(O)ccc1O2 | 455 µM and 260 µg/mL |
| C[C@@H]1CCC2C(C)(C)[C@H](O)[C@H](O)C[C@]2(C)[C@@]12Cc1c(O)cc(C(=O)[O-])c(C=O)c1O2.[Na+] (stereo partly specified) | 570 µM and 238 µg/mL |
| COc1cc(C(=O)[O-])cc2c1CC1(CCCCC1)O2.[Na+] | 820 µM and 214 µg/mL |
| COc1cc(C(=O)[O-])c(C=O)c2c1CC1(CCCCC1)O2.[Na+] | 160 µM and 44 µg/mL |
| C[C@H]1CC[C@@H](O)C(C)(C)[C@@]12Cc1cc(C(=O)[O-])cc(C#N)c1O2.[Na+] | 1.32 mM and 415 µg/mL |
| C[C@H]1CC[C@@H](O)C(C)(C)[C@@]12Cc1cc(C(=O)[O-])cc(Br)c1O2.[Na+] | 950 µM and 350 µg/mL |
